# Measured values from patent US20250090875A9, “IMMUNOSTIMULATORY COMPOUNDS AND CONJUGATES” (Seagen Inc., priority 2021, published 2025).
# Assays:
# hTLR8 = biological target: T1, hTLR8 (Homo sapiens, UniProt Q9NR97); experiment: HEK Blue hTLR8 cell assay of free TLR7/8 agonists; type: cell-based; conditions: HEK Blue hTLR8 cells, free agonist
# T1 construct: expressed in transfected cells; host or cells: HEK Blue hTLR8 cells
# T1 sequence (Q9NR97 27-1041): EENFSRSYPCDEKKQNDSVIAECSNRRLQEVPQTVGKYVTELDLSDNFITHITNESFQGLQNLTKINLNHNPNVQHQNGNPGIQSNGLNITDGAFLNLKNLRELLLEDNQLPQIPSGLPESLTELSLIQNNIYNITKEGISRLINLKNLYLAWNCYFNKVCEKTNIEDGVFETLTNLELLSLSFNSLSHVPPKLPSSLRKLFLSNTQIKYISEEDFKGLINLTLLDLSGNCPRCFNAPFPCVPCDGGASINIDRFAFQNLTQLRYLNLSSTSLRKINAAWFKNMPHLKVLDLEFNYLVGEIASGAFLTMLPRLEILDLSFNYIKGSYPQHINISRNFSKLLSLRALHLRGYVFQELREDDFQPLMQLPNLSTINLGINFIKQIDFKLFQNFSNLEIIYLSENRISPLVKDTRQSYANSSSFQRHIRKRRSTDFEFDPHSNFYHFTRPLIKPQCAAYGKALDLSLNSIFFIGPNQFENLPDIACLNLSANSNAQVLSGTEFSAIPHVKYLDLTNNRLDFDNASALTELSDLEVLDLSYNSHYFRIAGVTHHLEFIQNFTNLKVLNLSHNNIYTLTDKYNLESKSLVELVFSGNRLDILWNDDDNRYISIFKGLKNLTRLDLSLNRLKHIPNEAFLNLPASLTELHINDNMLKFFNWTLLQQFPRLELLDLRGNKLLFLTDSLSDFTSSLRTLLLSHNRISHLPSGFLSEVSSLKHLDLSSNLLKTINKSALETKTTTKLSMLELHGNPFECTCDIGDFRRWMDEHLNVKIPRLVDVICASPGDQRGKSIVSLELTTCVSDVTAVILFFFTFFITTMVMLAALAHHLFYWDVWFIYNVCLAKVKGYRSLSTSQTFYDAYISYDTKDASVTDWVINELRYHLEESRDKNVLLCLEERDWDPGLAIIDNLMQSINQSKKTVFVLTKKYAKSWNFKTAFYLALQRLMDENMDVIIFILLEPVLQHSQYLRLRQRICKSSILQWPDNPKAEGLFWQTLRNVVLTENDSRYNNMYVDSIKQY
# Description: (§1) This example covers toll-like receptor 7 (TLR7) and toll-like receptor 8 (TLR8) selectivity of imidazoquinoline agonists. Assessment of TLR7 and TLR8 selectivity for the free TLR7/8 agonists was performed using HEK Blue hTLR7 and hTLR8 cells over a large dose range of compounds. […] Activities were determined based on calculated EC50 (in μM) in each cell line, and are summarized in TABLE 4 below, with columns providing targets and rows providing compounds.
# hTLR7 = biological target: T2, hTLR7 (Homo sapiens, UniProt Q9NYK1); experiment: HEK Blue hTLR7 cell assay of free TLR7/8 agonists; type: cell-based; conditions: for EC50: HEK Blue hTLR7 cells, free agonist; for TLR7/TLR8: ratio of EC50 hTLR7 to EC50 hTLR8
# T2 construct: expressed in transfected cells; host or cells: HEK Blue hTLR7 cells
# T2 sequence (Q9NYK1 27-1049): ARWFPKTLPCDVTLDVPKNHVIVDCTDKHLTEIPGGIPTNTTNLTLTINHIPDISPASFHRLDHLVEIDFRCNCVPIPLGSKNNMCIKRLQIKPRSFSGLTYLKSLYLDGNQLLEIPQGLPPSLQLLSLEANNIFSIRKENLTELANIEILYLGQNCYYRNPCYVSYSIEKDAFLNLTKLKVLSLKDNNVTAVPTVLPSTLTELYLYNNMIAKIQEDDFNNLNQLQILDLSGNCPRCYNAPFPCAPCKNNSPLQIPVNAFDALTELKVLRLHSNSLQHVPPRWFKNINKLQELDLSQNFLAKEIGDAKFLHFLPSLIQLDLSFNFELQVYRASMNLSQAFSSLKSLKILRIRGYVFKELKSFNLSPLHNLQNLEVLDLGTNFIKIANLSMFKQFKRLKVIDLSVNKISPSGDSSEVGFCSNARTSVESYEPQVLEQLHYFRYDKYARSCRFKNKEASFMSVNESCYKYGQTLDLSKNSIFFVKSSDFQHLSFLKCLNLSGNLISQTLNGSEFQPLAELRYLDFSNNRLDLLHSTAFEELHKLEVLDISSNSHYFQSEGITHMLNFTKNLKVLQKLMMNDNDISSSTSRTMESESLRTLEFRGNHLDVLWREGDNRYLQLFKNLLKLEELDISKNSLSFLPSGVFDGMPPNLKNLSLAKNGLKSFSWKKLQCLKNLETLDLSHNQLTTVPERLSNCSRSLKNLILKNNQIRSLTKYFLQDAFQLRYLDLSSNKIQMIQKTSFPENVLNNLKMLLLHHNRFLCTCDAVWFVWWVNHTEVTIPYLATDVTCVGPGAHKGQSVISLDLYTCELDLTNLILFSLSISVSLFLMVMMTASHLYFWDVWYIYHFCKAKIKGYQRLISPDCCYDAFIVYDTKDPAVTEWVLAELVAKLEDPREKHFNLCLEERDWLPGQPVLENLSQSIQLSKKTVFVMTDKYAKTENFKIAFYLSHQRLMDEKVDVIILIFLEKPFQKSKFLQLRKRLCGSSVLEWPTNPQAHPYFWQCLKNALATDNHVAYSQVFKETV
# Description: as §1
# primary human PBMCs = experiment: Cytokine induction in primary human PBMCs by small molecule TLR7/8 agonists (Luminex); type: cell-based; conditions: free drug
# Description: This example covers dose dependent human immune cell activation by small molecule TLR7/8 agonists. Primary human PBMCs were isolated from peripheral whole blood from human donors and were subjected to treatment with increasing concentrations of the agonists diluted in PBS. Cell culture supernatants were harvested 24 h after treatment and analyzed for induction of cytokines via multiplex ELISAs (Luminex).
# Several small molecule TLR7/8 agonists were assessed for their ability to activate human immune cells in a dose dependent manner. Primary human PBMCs were isolated from peripheral whole blood from human donors and were subjected to treatment with increasing concentrations of the agonists diluted in PBS. 24 h after treatment cell culture supernatants were harvested and analyzed for induction of cytokines via multiplex ELISAs (Luminex).
# [1] = SEC analysis of ADC aggregation (high molecular weight species) in plasma; type: physicochemical; conditions: ADC incubated with human or mouse plasma, FIG. 9
# Description: Method I: Size-exclusion chromatography (SEC) was performed with a Waters ACQUITY UPLC system and an Acquity UPLC Protein BEH SEC Column, (200 Å, 1.7 μm, 4.6×150 mm, PN: 186005225). The mobile phase used was 7.5% isopropanol in 92.5% aqueous (25 mM sodium phosphate, 350 mM NaCl, pH 6.8), v/v. Elution was performed isocratically at a flow rate of 0.4 mL/min at ambient temperature.
# To determine if any of these differences in activity potentially resulted from increases in aggregation as a subsequent result of changes in charge, SEC analysis was performed. ADCs containing either S18a (methyl ester) or S18b (carboxylic acid) were incubated with both human or mouse plasma and assessed for the formation of high molecular weight species (HMW) over time.
# Renca tumors = experiment: Renca kidney carcinoma model in Balb/c mice; type: in vivo, mouse; conditions: for loss of potency, C4-linked vs N1-linked conjugate: dose increase of C4-linked conjugate needed to match 2 mg/kg N1-linked conjugate
# Description: The difference in anti-tumor activity of the S18a and S18b conjugates was also assessed in the Renca kidney model. In this model, mice bearing Renca tumors were treated q7dx3 when tumors reached ˜100 mm^3 as indicated, and followed for mean group tumor growth (FIG. 14, top) and survival (FIG. 14, bottom) over time.
# This example covers cancer treatment with EphA2 targeted TLR agonists. […] Balb/c mice were implanted with Renca tumor cells and when cells reached 100 mm^3 they were treated Q7dx3 treatments with 2.4 mg/kg of the indicated IDC, either non targeting isotype or an EphA2 targeting mAb.
# plasma cytokines [2] = experiment: Systemic plasma cytokine induction in non-tumor bearing Balb/c mice; type: in vivo, mouse
# CT26 tumors = type: in vivo
# Source text: This example covers in vivo assessments of anti-tumor activity of ADCs with TLR7/8 agonists. An in vivo syngeneic system was used to assess the ability of the ADCs having TLR ⅞ agonists as the payload to induce immune responses and drive an anti-tumor immune response using a subcutaneous, heterotopic mouse colon carcinoma model (a CT26 system). Female Balb/c mice were implanted with 1×10^5 CT26 cells sub-cutaneously in the flank on day 0. When mean tumor size of 100 mm^3 (measured using the formula: Volume (mm^3)=0.5*Length*Width^2 where length is the longer dimension) was reached, the mice were randomized into treatment groups of 6 mice per group. Animals were then treated intraperitoneally with the indicated treatment every 7 days, for 3 doses total. Stock concentrations of the ADCs were diluted to the appropriate concentration and injected into animals in 100 μL volumes. Tumor length and width and mouse weights were measured throughout the study and tumor volume was calculated using the formula above. Animals were followed until tumor volume reached 1000 mm^3, when animals were then euthanized.
# plasma cytokines [3] = experiment: Systemic cytokine response in CT26-tumor bearing mice; type: in vivo, mouse
# Description: In addition to analyzing this response in non-tumor bearing animals simply on systemic immune activation, the C4/N1-linked TLR7/8 drug antibody conjugates were also administered to CT26-tumor bearing animals to determine how the linkage site affects cytokine response and anti-tumor response. The results are shown in FIG. 17, which provides MIP1b (top panel) and TNFα (bottom panel) responses generated with N1-(cmpd 9) and C4-(cmpd 11) linked compounds conjugated to targeting and non-targeting antibodies, as well as for untreated cells. […] This was true for targeted and non-targeted control conjugates.
# [4] = tumor/immune targeted mAb, 2 mg/kg every 7 days, 3 doses, FIG. 38
EC50 (hTLR8),EC50 (hTLR7),TLR7/TLR8 (hTLR7),Compound,IL12p40 and IL1β responses (primary human PBMCs; FIG. 5),"potency and activity of cytokine induction (IL6, TNFα, MCP1, IP10) (primary human PBMCs; ranking, FIG. 30)",aggregation (formation of high molecular weight species over time) [1],"tumor growth and survival (Renca tumors; ADC, q7dx3 from ~100 mm^3, FIG. 14)","IL6 and TNFα levels, C4 vs N1 linkage (plasma cytokines [2]; immune-targeted ADC, 2 mg/kg intraperitoneal)","reduction of systemic cytokine induction (MCP1, IP10, MIP1a, MIP1b, RANTES), C4 vs N1 linkage (plasma cytokines [2]; immune-targeted ADC, 2 mg/kg intraperitoneal, plasma 3/6/24 h)","systemic cytokines (MIP1β, TNFα), C4 vs N1 linkage (plasma cytokines [2]; non-targeting ADC, FIG. 16)",animals reaching complete tumor cures (CT26 tumors; EphA2 targeting mAb),"anti-tumor activity and tumor growth delay (CT26 tumors; EphA2 targeting mAb or isotype, FIGS. 35, 36)",animals fully cured (CT26 tumors; [4]),median tumor volume (tumor growth delay) (CT26 tumors; [4]),"systemic activation (majority of cytokines), C4 vs N1 linkage (plasma cytokines [3]; targeted and non-targeted control conjugates, FIG. 17)","TNFα and MIP1β, C4 vs N1 linkage (plasma cytokines [3]; targeted antibody conjugate)","tumor growth (Renca tumors; EphA2 targeting mAb or isotype, Q7dx3, 2-2.4 mg/kg)","loss of potency, C4-linked vs N1-linked conjugate (Renca tumors)","loss of potency, C4-linked vs N1-linked conjugate (Renca tumors; listed as Compound 11)"
8.84 µM,2.53 µM,0.28,CCCCc1nc2c(N)nc3cc(C(=O)OC)ccc3c2n1CCCCCN [S14a],,,,,,,,,,,,,,,,
10.3 µM,0.44 µM,0.04,CCCCc1nc2c(N)nc3cc(C(=O)OC)ccc3c2n1Cc1ccc(CN(C)C)cc1 [S18a],lower responses of both cytokines,other two most potent compounds,no significant difference in the amounts of aggregation,some tumor growth benefit though no real survival benefit,,,,,,,,,,,,
,,,"CCCCc1nc2c(NC(=O)OCc3ccc(O[C@H]4O[C@H](CO)[C@@H](O)[C@H](O)[C@@H]4O)c(NC(=O)CCNC(=O)[C@H](CCCCNC(=O)CCOCCOCCOCCOCCOCCOCCOCCOCCOCCOCCOCCOC)NC(=O)CCN4C(=O)C=CC4=O)c3)nc3cc(C(=O)O)ccc3c2n1Cc1ccc(CN(C)C)cc1 [cmpd 11, 2-butyl-1-(4-((dimethylamino)methyl)benzyl)-4-((((3-((S)-44-(3-(2,5-dioxo-2,5-dihydro-1H-pyrrol-1-yl)propanamido)-38,45-dioxo-2,5,8,11,14,17,20,23,26,29,32,35-dodecaoxa-39,46-diazanonatetracontan-49-amido)-4-(((2R,3 S,4S,5 S,6R)-3,4,5-trihydroxy-6-(hydroxymethyl)tetrahydro-2H-pyran-2-yl)oxy)benzyl)oxy)carbonyl)amino)-1H-imidazo[4,5-c]quinoline-7-carboxylic acid]",,,,,no changes in IL6 or TNFα levels,4.8 -fold,greatly diminished systemic cytokines and non-specific uptake,50%,all animals benefiting from tumor growth delay,no cures,advantage with the TLR7/8 containing IDC vs the naked tumor/immune targeted mAb in terms of tumor growth delay,reduced systemic activation,equivalent for TNFα but showed benefit for MIP1β,substantial tumor growth delayed noted for several of the animals,~4 ×,approximately 4 ×
